Consider one molecule from BindingDB's records for PubMed 35777269 (University of Maryland, 2022).

Broadly, the IC50 is the concentration that inhibits the measured activity by half.

The experiment concerns the target Protein Wnt-3a (Human, UniProt P56704). In words: Inhibition of recombinant human Wnt3a in HEK293 cells assessed as Wnt signalling by measuring reduction in relative luminescence units incubated for 24 hrs by luciferase reporter assay.

Sequence of Protein Wnt-3a (P56704 whole entry): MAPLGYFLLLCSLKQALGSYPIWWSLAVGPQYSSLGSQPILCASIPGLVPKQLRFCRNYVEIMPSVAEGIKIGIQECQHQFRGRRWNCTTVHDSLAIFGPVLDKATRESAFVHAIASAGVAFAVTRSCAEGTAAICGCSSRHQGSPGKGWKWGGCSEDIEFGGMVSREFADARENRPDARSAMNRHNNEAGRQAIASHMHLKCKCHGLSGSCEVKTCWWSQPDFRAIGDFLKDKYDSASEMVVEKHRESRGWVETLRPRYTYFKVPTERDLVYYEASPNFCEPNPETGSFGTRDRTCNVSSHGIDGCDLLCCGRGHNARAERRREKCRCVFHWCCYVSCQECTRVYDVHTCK

As for `Cc1ccccc1-n1nnc(C(=O)Nc2ccc3ccccc3n2)c1C`, the IC50 is 4.1 nM.
